Assay results taken from patent US8513281B1 (priority 1999, dated 2013).
Where two headings read alike, the source gives them in different places.

Key:
[1] = tested on: rats with chronic spinal cord injury exhibiting allodynia; experiment: Intrathecal salicylate for pain: allodynia on light touch in rats with chronic spinal cord injury; type: in vivo, rat; details: intrathecal via ESOX pump, 60 μl per day; two rats; saline replaced by salicylate
Procedure: A 1-French silicon tubing was threaded into the intrathecal space from the atlanto-occipital membrane. The intrathecal catheter was connected an ESOX that was implanted subcutaneously. The ESOX pump flowed at a rate of 60 μl per day. Initially, saline was placed in the pumps. At testing on days 2, 12, 14 after pump placement, signs of allodynia were consistently observed when the animals were lightly touched at particular parts of their body (left flank for rat 1 and right shoulder for rat 2). Animals vocalized consistently when these areas were lightly touched. All of the behavioral testing was done by a person who was unaware of the type of drug delivered or the expected effects of the drug. The saline was removed from the pumps and the pumps were refilled with salicylate. […] When the salicylate was removed and replaced with saline, consistent allodynia was observed.

[2] = tested on: rats with spinal cord injury; experiment: BBB locomotor test after moderate to severe spinal cord injury; type: in vivo, rat; details: intrathecal via ESOX pump, 60 μl per day
Procedure: In this study, twenty-four rats deeply anesthetized rats received a moderate to severe spinal cord injury using a 2-French Fogarty embolectomy catheter. Shortly after injury, a 1-French silicon tubing was threaded into the intrathecal space from the atlanto-occipital membrane. The intrathecal catheter was connected an ESOX that was implanted subcutaneously. The ESOX pump flowed at a rate of 60 μl per day. Animals were randomly assigned to receive saline or salicylate. Animals were tested each week using the BBB locomotor test. All of the behavioral testing was done by a person who was unaware of the type of drug delivered or the expected effects of the drug. […] The average score for the saline treated rats was 0 while the average score for salicylate treated rats was 5.45.

Male Sprague-Dawley rats [3] = details: rat, in vivo
Male Sprague-Dawley rats [4] = details: rat, in vivo; remark: listed apart in the source
Male Sprague-Dawley rats [5] = details: rat, in vivo; remark: listed apart in the source

Row | Molecule | allodynia (vocalization when lightly touched) [1] | functional deficits versus saline [2] | average BBB locomotor score ([2]; started shortly after injury) | duration of effects (Male Sprague-Dawley rats [3]) | onset of response to the bolus (Male Sprague-Dawley rats [3]) | tail flick latency response (Male Sprague-Dawley rats [3]) | colorectal distension visceromotor response threshold (Male Sprague-Dawley rats [4]) | duration of effects (Male Sprague-Dawley rats [4]) | onset of response to the bolus (Male Sprague-Dawley rats [4]) | effect on flinches/licks of the hindpaw (formalin test) (Male Sprague-Dawley rats [5])
1 | O=C(O)c1ccccc1O [salicylate] | no evidence of allodynia was observed | on average less functional deficits | 5.45 |  |  |  |  |  |  | 
2 | choline-magnesium trisalicylate [Choline-Mg-Salicylate] |  |  |  | not long-lasting | rapid in onset | dose-dependent | dose-dependent | not long-lasting | rapid in onset | produced an effect
